These are literature values, as cited in patent US20230263777A1, “STABLE SOLID FORMULATION OF AZILSARTAN OR PHARMACEUTICALLY ACCEPTABLE SALTS THEREOF” (PIRAMAL PHARMA LIMITED, priority 2020, published 2023).

Each structure is given as a SMILES string.

Consider `CCOc1nc2cccc(C(=O)OCc3oc(=O)oc3C)c2n1Cc1ccc(-c2ccccc2-c2noc(=O)[nH]2)cc1` [Azilsartan kamedoxomil, (5-methyl-2-oxo-2H-1,3-dioxol-4-yl)methyl 2-ethoxy-1-({4-[2-(5-oxo-4,5-dihydro-1,2,4-oxadiazol-3-yl)phenyl]phenyl}methyl)-1H-1,3-benzodiazole-7-carboxylate], for which the Solubility in methanol entry (methanol) is given as “freely soluble”. Besides, for the setting “water”, the Solubility in water entry was “practically insoluble”.
